# In article PMC11946580, “In Vitro Enzymatic and Computational Assessments of Pyrazole–Isatin and Pyrazole–Indole Conjugates as Anti-Diabetic, Anti-Arthritic, and Anti-Inflammatory Agents” (Pharmaceutics, 2025):
# Columns and labels:
# [1] = target: bovine serum albumin (BSA) (Bos taurus, UniProt P02769); details: mean ± SE, three replicates; also: test concentration or dose not given here
# 5-LOX = target: T1, 5-LOX (Homo sapiens, UniProt P09917); test: 5-Lipoxygenase inhibition assay (kit); details: for 5-LOX Inhibition (%): mean ± SE, three replicates; as to 5-LOX Inhibition (%): test concentration or dose not given here
# T1 sequence (P09917 1-674): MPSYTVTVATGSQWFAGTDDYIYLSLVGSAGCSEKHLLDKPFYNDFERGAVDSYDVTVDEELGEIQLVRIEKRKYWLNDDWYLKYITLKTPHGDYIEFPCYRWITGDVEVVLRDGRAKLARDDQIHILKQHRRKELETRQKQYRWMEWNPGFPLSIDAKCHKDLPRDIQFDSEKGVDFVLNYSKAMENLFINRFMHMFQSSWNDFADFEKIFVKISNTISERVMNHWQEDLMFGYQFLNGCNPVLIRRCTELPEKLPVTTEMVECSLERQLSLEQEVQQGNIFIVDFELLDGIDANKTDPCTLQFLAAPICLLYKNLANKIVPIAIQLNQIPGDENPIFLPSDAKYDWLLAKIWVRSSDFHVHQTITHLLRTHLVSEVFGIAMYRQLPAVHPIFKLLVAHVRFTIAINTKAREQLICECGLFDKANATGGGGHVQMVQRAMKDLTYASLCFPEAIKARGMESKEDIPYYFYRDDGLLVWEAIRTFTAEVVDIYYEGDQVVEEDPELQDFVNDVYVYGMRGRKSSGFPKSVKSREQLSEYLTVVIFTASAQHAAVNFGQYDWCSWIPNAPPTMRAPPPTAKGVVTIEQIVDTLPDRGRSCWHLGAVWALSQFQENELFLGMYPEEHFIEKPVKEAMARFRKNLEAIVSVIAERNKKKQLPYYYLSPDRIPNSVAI
# COX-2 = target: T2, COX-2 (Homo sapiens, UniProt P35354); test: COX-2 inhibition assay (Cayman kit); type: biochemical; details: mean ± SE, three replicates
# T2 construct: purchased Cayman 560131
# T2 sequence (P35354 18-604): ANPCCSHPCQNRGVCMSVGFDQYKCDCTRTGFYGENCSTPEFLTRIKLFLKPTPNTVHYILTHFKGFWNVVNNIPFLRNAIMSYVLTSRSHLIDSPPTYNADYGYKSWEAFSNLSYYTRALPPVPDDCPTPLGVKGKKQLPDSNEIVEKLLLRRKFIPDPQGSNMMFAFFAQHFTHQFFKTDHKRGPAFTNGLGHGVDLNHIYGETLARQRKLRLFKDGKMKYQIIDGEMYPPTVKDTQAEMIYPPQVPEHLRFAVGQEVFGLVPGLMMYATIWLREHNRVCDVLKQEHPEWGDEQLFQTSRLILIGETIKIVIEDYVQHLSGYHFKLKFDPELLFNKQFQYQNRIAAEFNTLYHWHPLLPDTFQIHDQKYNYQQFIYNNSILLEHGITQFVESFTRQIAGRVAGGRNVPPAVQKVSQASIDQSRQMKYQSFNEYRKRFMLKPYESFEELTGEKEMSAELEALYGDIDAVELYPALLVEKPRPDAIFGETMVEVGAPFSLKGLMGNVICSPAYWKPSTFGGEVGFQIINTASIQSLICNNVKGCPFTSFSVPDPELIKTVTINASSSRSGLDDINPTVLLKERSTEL
# COX-1 = target: T3, COX-1 (Ovis aries, UniProt P05979); test: COX-1 inhibition assay (Cayman kit); details: for COX-1 Inhibition (%): mean ± SE, three replicates; as to COX-1 Inhibition (%): test concentration or dose not given here
# T3 sequence (P05979 25-600): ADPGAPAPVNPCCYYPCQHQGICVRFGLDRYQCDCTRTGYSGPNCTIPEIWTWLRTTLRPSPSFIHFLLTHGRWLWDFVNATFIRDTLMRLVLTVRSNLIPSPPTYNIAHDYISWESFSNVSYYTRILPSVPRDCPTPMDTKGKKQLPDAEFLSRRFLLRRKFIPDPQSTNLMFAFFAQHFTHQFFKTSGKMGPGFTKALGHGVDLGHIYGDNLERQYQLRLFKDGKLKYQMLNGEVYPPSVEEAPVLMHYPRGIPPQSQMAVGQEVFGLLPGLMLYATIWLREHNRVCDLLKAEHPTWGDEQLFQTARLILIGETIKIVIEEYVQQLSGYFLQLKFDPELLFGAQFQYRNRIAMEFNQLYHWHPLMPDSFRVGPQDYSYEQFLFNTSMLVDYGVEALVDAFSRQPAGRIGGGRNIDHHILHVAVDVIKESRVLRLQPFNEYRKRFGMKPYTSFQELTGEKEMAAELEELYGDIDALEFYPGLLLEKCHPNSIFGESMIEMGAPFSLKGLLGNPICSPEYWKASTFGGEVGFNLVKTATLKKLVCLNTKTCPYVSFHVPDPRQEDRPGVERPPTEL
# α-glucosidase = α-glucosidase (Saccharomyces cerevisiae, UniProt P53341); test: α-glucosidase inhibition assay (pNPG); type: biochemical; details: mean ± SE, three replicates
# Protocol: In vitro enzymatic assessments
# The mixture was then left at
# The absorbance was measured
# the enzymatic activity. […] The IC50
# α-glucosidase enzyme = target: α-glucosidase enzyme; set-up: method as in PMID 38225280; details: cited from earlier work
# [2] = target: cyclooxygenase-1 (COX-1) enzyme; set-up: method as in PMID 37985602; details: cited from earlier work
# [3] = target: cyclooxygenase-2 (COX-2) enzyme; set-up: method as in PMID 37985602; details: cited from earlier work
# [4] = test system: pancreatic cancer (PaCa-2) cells; set-up: method as in PMID 39193301; details: cited from earlier work
# α-amylase enzyme = target: α-amylase enzyme; set-up: method as in PMID 34600331; details: cited from earlier work
# [5] = set-up: method as in doi:10.1007/s11164-024-05318-1; details: read-out: antioxidant activities IC50; cited from earlier work
# COX-2 enzyme = target: COX-2 enzyme; set-up: method as in PMID 39143406; details: cited from earlier work
# [6] = set-up: method as in PMID 39143406; details: cited from earlier work
# diabetic mice = test system: diabetic mice; set-up: method as in PMID 38029465; details: cited from earlier work
# bovine serum albumin (BSA), sequence (P02769 25-607): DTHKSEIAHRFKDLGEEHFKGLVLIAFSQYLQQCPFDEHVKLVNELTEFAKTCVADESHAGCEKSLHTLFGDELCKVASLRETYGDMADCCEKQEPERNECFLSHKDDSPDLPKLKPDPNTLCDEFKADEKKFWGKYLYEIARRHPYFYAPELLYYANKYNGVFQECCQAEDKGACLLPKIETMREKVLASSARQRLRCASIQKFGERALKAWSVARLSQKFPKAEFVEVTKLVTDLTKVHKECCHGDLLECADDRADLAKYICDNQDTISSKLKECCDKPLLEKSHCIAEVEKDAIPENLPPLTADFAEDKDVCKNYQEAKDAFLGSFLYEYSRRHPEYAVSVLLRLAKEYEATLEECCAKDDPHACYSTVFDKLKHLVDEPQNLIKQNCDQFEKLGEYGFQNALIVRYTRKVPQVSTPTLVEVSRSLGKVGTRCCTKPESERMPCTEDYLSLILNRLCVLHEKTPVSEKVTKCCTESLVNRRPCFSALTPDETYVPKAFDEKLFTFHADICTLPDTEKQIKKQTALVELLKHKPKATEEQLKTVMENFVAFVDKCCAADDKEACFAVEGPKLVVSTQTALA
# α-glucosidase, sequence (P53341 whole entry): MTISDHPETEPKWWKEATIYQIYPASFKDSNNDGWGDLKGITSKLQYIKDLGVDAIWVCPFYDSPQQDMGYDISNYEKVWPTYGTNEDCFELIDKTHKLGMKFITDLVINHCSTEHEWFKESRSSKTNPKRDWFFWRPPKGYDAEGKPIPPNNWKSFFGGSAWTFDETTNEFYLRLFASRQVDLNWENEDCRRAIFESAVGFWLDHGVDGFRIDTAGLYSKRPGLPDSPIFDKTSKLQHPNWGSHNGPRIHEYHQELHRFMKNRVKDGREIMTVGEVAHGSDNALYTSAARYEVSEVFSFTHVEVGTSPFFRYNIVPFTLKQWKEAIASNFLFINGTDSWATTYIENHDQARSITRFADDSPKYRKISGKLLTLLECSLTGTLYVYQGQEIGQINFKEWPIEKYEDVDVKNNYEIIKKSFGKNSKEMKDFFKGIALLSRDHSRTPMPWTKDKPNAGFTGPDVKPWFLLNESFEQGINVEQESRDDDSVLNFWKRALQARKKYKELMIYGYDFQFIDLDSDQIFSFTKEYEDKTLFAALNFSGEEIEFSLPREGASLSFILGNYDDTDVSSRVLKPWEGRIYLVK
SMILES,Protein Denaturation Inhibition (%) [1] [%],IC50 (5-LOX) [µM],5-LOX Inhibition (%) (5-LOX),COX-2 Inhibition (%) (COX-2),IC50 (COX-2) [µM],IC50 (COX-1) [µM],COX-1 Inhibition (%) (COX-1),also measured
CN1C(=O)C(=Nc2[nH]nc(Nc3ccccc3)c2C(=O)Nc2ccccc2)c2ccccc21 [12a],14.40 ± 0.03,49.9,9.57 ± 0.04,19.72 ± 0.04,45,49.8,17.47 ± 0.04,–
Cc1ccc(NC(=O)c2c(Nc3ccccc3)n[nH]c2N=C2C(=O)N(C)c3ccccc32)cc1 [12b],15.25 ± 0.03,45.7,10.85 ± 0.04,21.00 ± 0.04,40.9,44.9,18.75 ± 0.04,–
COc1ccc(Nc2n[nH]c(N=C3C(=O)N(C)c4ccccc43)c2C(=O)Nc2ccccc2)cc1 [12c],16.73 ± 0.03,40.4,13.08 ± 0.04,23.23 ± 0.04,35.8,38.8,20.98 ± 0.04,–
COc1ccc(Nc2n[nH]c(N=C3C(=O)N(C)c4ccccc43)c2C(=O)Nc2ccc(C)cc2)cc1 [12d],16.62 ± 0.03,39.4,12.90 ± 0.04,23.05 ± 0.04,35,38,20.80 ± 0.04,–
CCN1C(=O)C(=Nc2[nH]nc(Nc3ccccc3)c2C(=O)Nc2ccccc2)c2ccccc21 [12e],14.50 ± 0.03,48,9.72 ± 0.04,19.87 ± 0.04,43.3,47.8,17.62 ± 0.04,–
CCN1C(=O)/C(=N\c2[nH]nc(Nc3ccccc3)c2C(=O)Nc2ccc(C)cc2)c2ccccc21 [12f],15.36 ± 0.03,44,11.01 ± 0.04,21.16 ± 0.04,39.4,43.2,18.91 ± 0.04,–
CCN1C(=O)C(=Nc2[nH]nc(Nc3ccc(OC)cc3)c2C(=O)Nc2ccccc2)c2ccccc21 [12g],16.85 ± 0.03,38.9,13.25 ± 0.04,23.40 ± 0.04,34.4,37.4,21.15 ± 0.04,–
CCN1C(=O)C(=Nc2[nH]nc(Nc3ccc(OC)cc3)c2C(=O)Nc2ccc(C)cc2)c2ccccc21 [12h],16.45 ± 0.03,38.7,12.66 ± 0.04,22.81 ± 0.04,34.3,37.3,20.56 ± 0.04,–
O=C(Nc1ccccc1)c1c(Nc2ccccc2)n[nH]c1N=Cc1c[nH]c2ccccc12 [14a],37.94 ± 0.17,21.9,44.89 ± 0.26,55.04 ± 0.26,16.7,17.1,52.79 ± 0.26,–
Cc1ccc(NC(=O)c2c(Nc3ccccc3)n[nH]c2N=Cc2c[nH]c3ccccc23)cc1 [14b],49.30 ± 0.17,17.3,61.93 ± 0.26,72.08 ± 0.26,12.4,12.5,69.83 ± 0.26,–
COc1ccc(Nc2n[nH]c(N=Cc3c[nH]c4ccccc34)c2C(=O)Nc2ccccc2)cc1 [14c],26.13 ± 0.17,27.8,27.17 ± 0.26,37.32 ± 0.26,23,24,35.07 ± 0.26,–
COc1ccc(Nc2n[nH]c(N=Cc3c[nH]c4ccccc34)c2C(=O)Nc2ccc(C)cc2)cc1 [14d],26.50 ± 0.17,26.7,27.73 ± 0.26,37.88 ± 0.26,22,22.9,35.63 ± 0.26,–
C[C@H]1O[C@H](O[C@H]2[C@H](O)[C@@H](O)[C@@H](O[C@H]3[C@H](O)[C@@H](O)C(O)O[C@@H]3CO)O[C@@H]2CO)[C@H](O)[C@@H](O)[C@@H]1N[C@H]1C=C(CO)[C@@H](O)[C@H](O)[C@H]1O (stereo partly shown) [Acarbose],–,–,–,–,–,–,–,α-Glucosidase Inhibition (%) (α-glucosidase): 62.33 ± 0.16%
"CC(c1cc2ccccc2s1)N(O)C(N)=O (stereo not shown) [Zileuton, reference compound]",–,–,72.61 ± 0.07,–,–,–,–,–
Cc1cc(-c2nnc(S)n2N)n[nH]1 [compound 1],–,–,–,–,–,–,–,IC50 (α-glucosidase enzyme): 95.85 ± 0.92 µM
O=C(Nc1cc(-c2ccccc2)nn1-c1ccccc1)c1ccc(/C=C/C(=O)c2ccc(Cl)s2)cc1 [compound 2],–,–,–,–,–,–,–,IC50 [2]: 10.2 µM; IC50 [3]: 1.76 µM
CCc1nn(-c2ccc([N+](=O)[O-])cc2)c(C)c1C(=O)/C=C/c1ccccc1 [compound 3],–,–,–,–,–,–,–,PaCa-2 cells IC50 [4]: 13.0 µg/mL; cell cycle effect in treated PaCa-2 cells [4]: induces cell cycle arrest at the S and G2/M phases
CCC(=O)CN1C(=O)/C(=N/NC(=O)c2ccc(Br)cc2)c2ccccc21 [compound 4],–,–,–,–,–,–,–,α-amylase IC50 (α-amylase enzyme): 19.6 µg/mL
COc1cc(C=NNC(=S)NN=C2C(=O)Nc3ccc(I)cc32)ccc1O [compound 5],–,–,–,–,–,–,–,IC50 [5]: 9.76 ± 0.03 µM
Cc1ccc(NS(=O)(=O)c2ccc(-c3csc(N/N=C4\C(=O)Nc5ccc(Cl)cc54)n3)cc2)cc1 [compound 6],–,–,–,–,–,–,–,IC50 (COX-2 enzyme): 8.26 µM; selectivity against COX-2 (SI) (COX-2 enzyme): 2.65; edema inhibition (EI) [6]: 38.50%
Cc1ccc(/C=C2\SC(=O)N(CC(=O)NCCc3c[nH]c4ccccc34)C2=O)cc1 [compound 7],–,–,–,–,–,–,–,glucose levels in diabetic mice (diabetic mice): suppressed glucose levels in diabetic mice
